In ChEMBL document CHEMBL1921728, “β-PNA: peptide nucleic acid (PNA) with a chiral center at the β-position of the PNA backbone” (Bioorg Med Chem Lett, 2011):

How the values were obtained:
Nucleic Acid = assay: Binding affinity to 5'-AGTGATCTAC-3' DNA assessed as melting temperature at 5 uM at pH 7.4 by thermal denaturation assay; format: nucleic-acid assay
[1] = Solubility of the compound in water; format: physicochemical

Tm (Nucleic Acid) [°C] | solubility [1] [µM] | SMILES
51.4 | > 500 | Cc1cn(CC(=O)N(CCNC(=O)CN(CCNC(=O)CN(CCNC(=O)CN(CCNC(=O)CN(CCNC(=O)CN(CCN)C(=O)Cn2cnc3c(=O)[nH]c(N)nc32)C(=O)Cn2cc(C)c(=O)[nH]c2=O)C(=O)Cn2cnc3c(N)ncnc32)C(=O)Cn2cnc3c(=O)[nH]c(N)nc32)C(=O)Cn2cnc3c(N)ncnc32)CC(=O)NCCN(CC(=O)NCCN(CC(=O)NCCN(CC(=O)NCCN(CC(=O)N[C@@H](CCCCN)C(N)=O)C(=O)Cn2cc(C)c(=O)[nH]c2=O)C(=O)Cn2ccc(N)nc2=O)C(=O)Cn2cnc3c(N)ncnc32)C(=O)Cn2ccc(N)nc2=O)c(=O)[nH]c1=O
51 | > 500 | Cc1cn(CC(=O)N(CC(=O)NCCN(CC(=O)NCCN(CC(=O)NCCN(CC(=O)NC[C@H](C)N(CC(=O)N[C@@H](CCCCN)C(N)=O)C(=O)Cn2cc(C)c(=O)[nH]c2=O)C(=O)Cn2ccc(N)nc2=O)C(=O)Cn2cnc3c(N)ncnc32)C(=O)Cn2ccc(N)nc2=O)[C@@H](C)CNC(=O)CN(CCNC(=O)CN(CCNC(=O)CN(CCNC(=O)CN(C(=O)Cn2cc(C)c(=O)[nH]c2=O)[C@@H](C)CNC(=O)CN(CCN)C(=O)Cn2cnc3c(=O)[nH]c(N)nc32)C(=O)Cn2cnc3c(N)ncnc32)C(=O)Cn2cnc3c(=O)[nH]c(N)nc32)C(=O)Cn2cnc3c(N)ncnc32)c(=O)[nH]c1=O
 | > 500 | Cc1cn(CC(=O)N(CC(=O)NCCN(CC(=O)NCCN(CC(=O)NCCN(CC(=O)NC[C@@H](C)N(CC(=O)N[C@H](CCCCN)C(N)=O)C(=O)Cn2cc(C)c(=O)[nH]c2=O)C(=O)Cn2ccc(N)nc2=O)C(=O)Cn2cnc3c(N)ncnc32)C(=O)Cn2ccc(N)nc2=O)[C@H](C)CNC(=O)CN(CCNC(=O)CN(CCNC(=O)CN(CCNC(=O)CN(C(=O)Cn2cc(C)c(=O)[nH]c2=O)[C@H](C)CNC(=O)CN(CCN)C(=O)Cn2cnc3c(=O)[nH]c(N)nc32)C(=O)Cn2cnc3c(N)ncnc32)C(=O)Cn2cnc3c(=O)[nH]c(N)nc32)C(=O)Cn2cnc3c(N)ncnc32)c(=O)[nH]c1=O
